Assay results: publication PMC2806602 (The Journal of neuroscience : the official journal of the …, 2009)
Where a chain is given by its changes, count along the chain named.

Columns and labels:
Assay type in all cases: cell-based
GluRδ2^Lc D535A+D782A = molecular target: T1, GluRδ2^Lc D535A+D782A (Rattus norvegicus, UniProt Q63226, A654T/D535A/D782A); experiment: Two-electrode voltage-clamp recordings in Xenopus oocytes, GluRδ2^Lc D535A+D782A
T1 sequence (Q63226 24-1007 D535A/A654T/D782A): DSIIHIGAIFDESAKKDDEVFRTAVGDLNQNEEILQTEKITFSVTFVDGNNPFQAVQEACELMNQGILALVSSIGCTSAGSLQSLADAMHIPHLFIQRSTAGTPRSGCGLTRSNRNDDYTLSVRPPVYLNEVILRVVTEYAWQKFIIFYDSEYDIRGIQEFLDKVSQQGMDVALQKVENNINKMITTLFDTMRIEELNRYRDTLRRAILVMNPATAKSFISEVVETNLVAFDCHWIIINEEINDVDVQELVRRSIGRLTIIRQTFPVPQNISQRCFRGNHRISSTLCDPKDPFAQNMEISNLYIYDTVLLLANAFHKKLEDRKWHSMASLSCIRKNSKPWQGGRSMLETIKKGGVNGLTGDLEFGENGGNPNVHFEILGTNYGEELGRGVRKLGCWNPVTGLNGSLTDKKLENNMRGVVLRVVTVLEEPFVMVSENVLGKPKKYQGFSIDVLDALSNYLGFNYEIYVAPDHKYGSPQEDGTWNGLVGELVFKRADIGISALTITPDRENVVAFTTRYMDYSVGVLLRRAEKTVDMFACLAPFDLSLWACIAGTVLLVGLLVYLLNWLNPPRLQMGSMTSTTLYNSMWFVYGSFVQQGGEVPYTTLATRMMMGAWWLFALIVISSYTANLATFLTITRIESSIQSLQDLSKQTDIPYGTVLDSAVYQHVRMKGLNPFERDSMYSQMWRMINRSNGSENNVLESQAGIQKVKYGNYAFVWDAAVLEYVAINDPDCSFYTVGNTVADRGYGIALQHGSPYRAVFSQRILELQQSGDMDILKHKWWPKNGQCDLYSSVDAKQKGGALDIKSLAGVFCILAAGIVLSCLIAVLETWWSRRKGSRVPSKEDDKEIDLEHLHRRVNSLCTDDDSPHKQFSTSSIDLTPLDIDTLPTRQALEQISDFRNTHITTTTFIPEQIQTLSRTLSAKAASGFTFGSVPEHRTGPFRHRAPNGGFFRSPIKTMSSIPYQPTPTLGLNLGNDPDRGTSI

GluRδ2^Lc E531C+D782C = molecular target: T2, GluRδ2^Lc E531C+D782C (Rattus norvegicus, UniProt Q63226, A654T/D782C/E531C); experiment: Two-electrode voltage-clamp recordings in Xenopus oocytes, GluRδ2^Lc E531C+D782C
T2 sequence (Q63226 24-1007 E531C/A654T/D782C): T1 sequence (Q63226 24-1007 D535A/A654T/D782A) with E508C, A512D, A759C

GluRδ2^Lc D535C+D782C = molecular target: T3, GluRδ2^Lc D535C+D782C (Rattus norvegicus, UniProt Q63226, A654T/D535C/D782C); experiment: Two-electrode voltage-clamp recordings in Xenopus oocytes, GluRδ2^Lc D535C+D782C
T3 sequence (Q63226 24-1007 D535C/A654T/D782C): T1 sequence (Q63226 24-1007 D535A/A654T/D782A) with A512C, A759C

Structure (SMILES)	Ca^2+ potentiation (relative to baseline) (GluRδ2^Lc D535A+D782A; 3 mM Ca^2+, ± SEM)	Ca^2+ potentiation (relative to baseline) (GluRδ2^Lc E531C+D782C; 3 mM Ca^2+, ± SEM)	Ca^2+ potentiation (relative to baseline) (GluRδ2^Lc D535C+D782C; 3 mM Ca^2+, ± SEM)	D-serine + 0 mM Ca^2+ nH (GluRδ2^Lc D535A+D782A; Hill slope, 0 mM Ca^2+)	D-serine + 3 mM Ca^2+ nH (GluRδ2^Lc D535A+D782A; Hill slope, 3 mM Ca^2+)	D-serine + 0 mM Ca^2+ nH (GluRδ2^Lc E531C+D782C; Hill slope, 0 mM Ca^2+)	D-serine + 3 mM Ca^2+ nH (GluRδ2^Lc E531C+D782C; Hill slope, 3 mM Ca^2+)	D-serine + 0 mM Ca^2+ nH (GluRδ2^Lc D535C+D782C; Hill slope, 0 mM Ca^2+)	D-serine + 3 mM Ca^2+ nH (GluRδ2^Lc D535C+D782C; Hill slope, 3 mM Ca^2+)
[Ca+2] [Ca^2+, calcium]	0.6 ± 0.01 fold	0.9 ± 0.01 fold	0.9 ± 0.01 fold	–	–	–	–	–	–
N[C@H](CO)C(=O)O [D-serine]	–	–	–	1.0	1.1	0.8	0.8	0.9	1.0
